From patent US20190292189A1, “LIM KINASE INHIBITORS” (VIRONGY, LLC, priority 2016, published 2019)

Assays:
P450 1A2 = molecular target: T1, P450 1A2 (Homo sapiens, UniProt P05177)
T1 sequence (P05177 1-516): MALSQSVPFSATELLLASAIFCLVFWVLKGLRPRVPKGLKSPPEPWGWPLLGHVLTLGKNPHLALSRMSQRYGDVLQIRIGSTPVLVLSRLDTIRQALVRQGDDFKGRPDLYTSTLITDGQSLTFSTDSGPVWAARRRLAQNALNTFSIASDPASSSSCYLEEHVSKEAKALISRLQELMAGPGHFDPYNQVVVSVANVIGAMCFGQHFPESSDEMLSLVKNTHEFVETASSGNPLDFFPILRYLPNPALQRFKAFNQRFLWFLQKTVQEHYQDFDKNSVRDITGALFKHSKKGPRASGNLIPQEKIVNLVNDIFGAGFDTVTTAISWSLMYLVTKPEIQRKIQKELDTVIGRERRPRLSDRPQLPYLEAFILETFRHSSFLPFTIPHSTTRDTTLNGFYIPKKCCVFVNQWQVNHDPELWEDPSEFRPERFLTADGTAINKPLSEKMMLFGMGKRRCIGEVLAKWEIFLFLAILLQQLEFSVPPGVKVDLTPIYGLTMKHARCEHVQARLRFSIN

P450 2D6 = P450 2D6 (Homo sapiens, UniProt P10635); assay: P450 inhibition at 10 μM; assay type: in vitro ADME
[1] = Plasma pharmacokinetics studies on rats; conditions: rats
Method: In vivo pharmacokinetics (PK) studies were conducted for selected compounds during the whole optimization at various stages in order to identify structural elements that are favorable for in vivo applications, and/or to evaluate the feasibility of optimized Limk inhibitors for animal studies.

[2] = system: single-cycle HIV-1(Env) in CEM-SS T cells; assay type: cell-based; conditions: all time points
EBOV (Zaire ebolavirus) = assay type: cell-based; conditions: HFF-1 cells
[3] = system: RVFV (rift valley fever virus); assay type: cell-based; conditions: Vero cells
PKA = molecular target: T2, PKA (Homo sapiens, UniProt P17612); assay: Kinase profiling at 1 μM (Reaction Biology); assay type: biochemical; conditions: ATP 10 μM
T2 construct: purchased Reaction Biology Corporation
Method in brief: (§1)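 Compounds were screened at a single concentration of 1 μM against each kinase with ATP held at 10 μM. Values are percentages averaged from two determinations, with staurosporine run as the positive control.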

PKCa = molecular target: T3, PKCa (Homo sapiens, UniProt P17252); assay: Kinase profiling at 1 μM (Reaction Biology); assay type: biochemical; conditions: ATP 10 μM
T3 construct: purchased Reaction Biology Corporation
Method in brief: as §1

NEK1 = molecular target: T4, NEK1 (Homo sapiens, UniProt Q96PY6); assay: Kinase profiling at 1 μM (Reaction Biology); assay type: biochemical; conditions: ATP 10 μM
T4 construct: purchased Reaction Biology Corporation
Method in brief: as §1

AMPK(A1/B1/G1) = molecular target: T5, AMPK(A1/B1/G1) (Homo sapiens, UniProt Q13131); assay: Kinase profiling at 1 μM (Reaction Biology); assay type: biochemical; conditions: ATP 10 μM
T5 construct: purchased Reaction Biology Corporation
Method in brief: as §1

SLK/STK2 = molecular target: T6, SLK/STK2 (Homo sapiens, UniProt Q9H2G2); assay: Kinase profiling at 1 μM (Reaction Biology); assay type: biochemical; conditions: ATP 10 μM
T6 construct: purchased Reaction Biology Corporation
Method in brief: as §1

PLK2 = molecular target: T7, PLK2 (Homo sapiens, UniProt Q9NYY3); assay: Kinase profiling at 1 μM (Reaction Biology); assay type: biochemical; conditions: ATP 10 μM
T7 construct: purchased Reaction Biology Corporation
Method in brief: as §1

BRAF = molecular target: T8, BRAF (Homo sapiens, UniProt P15056); assay: Kinase profiling at 1 μM (Reaction Biology); assay type: biochemical; conditions: ATP 10 μM
T8 construct: purchased Reaction Biology Corporation
Method in brief: as §1

CDK5/p35 = molecular target: T9, CDK5/p35 (Homo sapiens, UniProt Q00535); assay: Kinase profiling at 1 μM (Reaction Biology); assay type: biochemical; conditions: ATP 10 μM
T9 construct: purchased Reaction Biology Corporation
Method in brief: as §1

PKN1/PRK1 = molecular target: T10, PKN1/PRK1 (Homo sapiens, UniProt Q16512); assay: Kinase profiling at 1 μM (Reaction Biology); assay type: biochemical; conditions: ATP 10 μM
T10 construct: purchased Reaction Biology Corporation
Method in brief: as §1

DAPK1 = molecular target: T11, DAPK1 (Homo sapiens, UniProt P53355); assay: Kinase profiling at 1 μM (Reaction Biology); assay type: biochemical; conditions: ATP 10 μM
T11 construct: purchased Reaction Biology Corporation
Method in brief: as §1

FAK/PTK2 = molecular target: T12, FAK/PTK2 (Homo sapiens, UniProt Q05397); assay: Kinase profiling at 1 μM (Reaction Biology); assay type: biochemical; conditions: ATP 10 μM
T12 construct: purchased Reaction Biology Corporation
Method in brief: as §1

TBK1 = molecular target: T13, TBK1 (Homo sapiens, UniProt Q9UHD2); assay: Kinase profiling at 1 μM (Reaction Biology); assay type: biochemical; conditions: ATP 10 μM
T13 construct: purchased Reaction Biology Corporation
Method in brief: as §1

mTOR/FRAP1 = molecular target: T14, mTOR/FRAP1 (Homo sapiens, UniProt P42345); assay: Kinase profiling at 1 μM (Reaction Biology); assay type: biochemical; conditions: ATP 10 μM
T14 construct: purchased Reaction Biology Corporation
Method in brief: as §1

MLCK/MYLK = molecular target: T15, MLCK/MYLK (Homo sapiens, UniProt Q15746); assay: Kinase profiling at 1 μM (Reaction Biology); assay type: biochemical; conditions: ATP 10 μM
T15 construct: purchased Reaction Biology Corporation
Method in brief: as §1

TAK1 = molecular target: T16, TAK1 (Homo sapiens, UniProt O43318); assay: Kinase profiling at 1 μM (Reaction Biology); assay type: biochemical; conditions: ATP 10 μM
T16 construct: purchased Reaction Biology Corporation
Method in brief: as §1

T10 sequence (Q16512 whole entry): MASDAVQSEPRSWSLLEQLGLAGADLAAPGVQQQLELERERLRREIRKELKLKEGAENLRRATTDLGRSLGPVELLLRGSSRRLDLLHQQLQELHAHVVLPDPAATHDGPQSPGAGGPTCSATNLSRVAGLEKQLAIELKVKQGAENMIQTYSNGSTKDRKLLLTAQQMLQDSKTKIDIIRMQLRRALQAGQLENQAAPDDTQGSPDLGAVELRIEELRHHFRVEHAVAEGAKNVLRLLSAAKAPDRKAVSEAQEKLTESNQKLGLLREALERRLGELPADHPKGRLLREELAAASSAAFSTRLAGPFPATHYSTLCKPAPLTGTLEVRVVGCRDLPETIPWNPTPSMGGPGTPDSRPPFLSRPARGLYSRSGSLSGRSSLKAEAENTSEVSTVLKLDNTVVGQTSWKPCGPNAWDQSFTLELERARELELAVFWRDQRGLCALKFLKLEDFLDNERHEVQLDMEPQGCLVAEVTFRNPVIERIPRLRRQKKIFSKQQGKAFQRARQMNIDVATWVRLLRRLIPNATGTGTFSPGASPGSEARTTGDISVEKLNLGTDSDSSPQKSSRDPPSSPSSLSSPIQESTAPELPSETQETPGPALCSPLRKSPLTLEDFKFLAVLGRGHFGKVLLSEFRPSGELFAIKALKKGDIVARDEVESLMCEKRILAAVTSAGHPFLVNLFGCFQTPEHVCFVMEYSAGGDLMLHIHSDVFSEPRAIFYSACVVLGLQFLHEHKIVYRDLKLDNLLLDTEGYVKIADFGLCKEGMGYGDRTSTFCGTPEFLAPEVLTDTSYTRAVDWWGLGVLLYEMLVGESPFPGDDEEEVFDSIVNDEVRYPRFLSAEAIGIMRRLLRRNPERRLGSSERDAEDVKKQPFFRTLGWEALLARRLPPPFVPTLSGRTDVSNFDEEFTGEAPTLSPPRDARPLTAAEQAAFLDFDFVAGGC
T8 sequence (P15056 whole entry): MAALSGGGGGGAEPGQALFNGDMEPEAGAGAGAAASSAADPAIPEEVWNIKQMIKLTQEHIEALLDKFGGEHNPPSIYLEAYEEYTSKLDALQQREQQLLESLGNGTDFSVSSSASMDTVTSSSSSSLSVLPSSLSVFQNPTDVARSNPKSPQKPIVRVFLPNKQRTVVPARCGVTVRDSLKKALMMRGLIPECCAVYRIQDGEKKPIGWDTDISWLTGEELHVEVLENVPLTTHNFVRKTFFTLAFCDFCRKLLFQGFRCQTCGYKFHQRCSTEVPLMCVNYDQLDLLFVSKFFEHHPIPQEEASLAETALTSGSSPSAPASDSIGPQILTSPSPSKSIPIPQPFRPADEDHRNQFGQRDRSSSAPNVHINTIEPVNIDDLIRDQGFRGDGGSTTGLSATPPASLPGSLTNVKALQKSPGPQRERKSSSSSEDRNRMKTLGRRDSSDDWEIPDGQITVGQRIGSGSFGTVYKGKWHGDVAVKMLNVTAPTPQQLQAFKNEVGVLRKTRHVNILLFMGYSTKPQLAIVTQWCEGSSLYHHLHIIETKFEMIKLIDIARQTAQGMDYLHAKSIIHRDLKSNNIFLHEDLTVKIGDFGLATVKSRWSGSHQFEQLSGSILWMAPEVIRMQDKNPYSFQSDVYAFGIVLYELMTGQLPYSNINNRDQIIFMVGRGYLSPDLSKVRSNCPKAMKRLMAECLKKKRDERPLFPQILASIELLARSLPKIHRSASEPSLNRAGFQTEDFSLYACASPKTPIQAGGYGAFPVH
T11 sequence (P53355 whole entry): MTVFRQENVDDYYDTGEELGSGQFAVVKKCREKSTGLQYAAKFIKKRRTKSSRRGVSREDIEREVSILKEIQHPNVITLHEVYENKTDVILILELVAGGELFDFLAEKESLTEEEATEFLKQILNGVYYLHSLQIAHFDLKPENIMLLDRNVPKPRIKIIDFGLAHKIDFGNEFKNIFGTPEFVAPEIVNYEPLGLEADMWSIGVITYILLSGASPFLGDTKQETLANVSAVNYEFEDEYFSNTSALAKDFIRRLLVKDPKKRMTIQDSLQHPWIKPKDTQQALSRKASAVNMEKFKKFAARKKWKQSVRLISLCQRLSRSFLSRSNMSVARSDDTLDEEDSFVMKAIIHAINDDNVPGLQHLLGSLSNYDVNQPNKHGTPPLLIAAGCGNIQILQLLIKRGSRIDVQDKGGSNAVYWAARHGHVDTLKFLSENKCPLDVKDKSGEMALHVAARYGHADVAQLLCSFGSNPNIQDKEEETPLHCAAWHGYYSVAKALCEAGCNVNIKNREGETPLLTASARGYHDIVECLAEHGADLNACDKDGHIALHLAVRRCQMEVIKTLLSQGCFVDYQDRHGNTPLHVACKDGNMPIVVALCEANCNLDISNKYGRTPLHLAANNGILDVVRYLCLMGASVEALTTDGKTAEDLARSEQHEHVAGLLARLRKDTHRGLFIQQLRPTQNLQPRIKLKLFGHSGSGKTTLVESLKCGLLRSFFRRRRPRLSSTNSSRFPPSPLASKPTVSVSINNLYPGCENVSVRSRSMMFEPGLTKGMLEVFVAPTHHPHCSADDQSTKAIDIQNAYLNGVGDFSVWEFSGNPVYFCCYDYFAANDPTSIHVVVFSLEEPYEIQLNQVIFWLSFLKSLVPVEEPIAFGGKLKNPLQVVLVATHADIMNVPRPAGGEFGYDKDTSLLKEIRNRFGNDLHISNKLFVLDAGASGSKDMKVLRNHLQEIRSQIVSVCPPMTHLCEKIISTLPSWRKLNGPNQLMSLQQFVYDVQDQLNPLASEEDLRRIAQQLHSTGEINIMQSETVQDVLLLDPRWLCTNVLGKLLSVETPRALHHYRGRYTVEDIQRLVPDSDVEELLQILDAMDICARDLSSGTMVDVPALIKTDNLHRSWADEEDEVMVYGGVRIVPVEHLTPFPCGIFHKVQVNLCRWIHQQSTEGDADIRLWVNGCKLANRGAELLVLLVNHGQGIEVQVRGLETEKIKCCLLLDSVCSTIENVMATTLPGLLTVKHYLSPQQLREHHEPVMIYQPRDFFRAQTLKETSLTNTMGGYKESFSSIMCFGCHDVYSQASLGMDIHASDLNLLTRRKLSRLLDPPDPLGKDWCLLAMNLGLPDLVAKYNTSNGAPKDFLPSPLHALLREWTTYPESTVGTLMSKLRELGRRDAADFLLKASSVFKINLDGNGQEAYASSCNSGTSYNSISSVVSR
T6 sequence (Q9H2G2 whole entry): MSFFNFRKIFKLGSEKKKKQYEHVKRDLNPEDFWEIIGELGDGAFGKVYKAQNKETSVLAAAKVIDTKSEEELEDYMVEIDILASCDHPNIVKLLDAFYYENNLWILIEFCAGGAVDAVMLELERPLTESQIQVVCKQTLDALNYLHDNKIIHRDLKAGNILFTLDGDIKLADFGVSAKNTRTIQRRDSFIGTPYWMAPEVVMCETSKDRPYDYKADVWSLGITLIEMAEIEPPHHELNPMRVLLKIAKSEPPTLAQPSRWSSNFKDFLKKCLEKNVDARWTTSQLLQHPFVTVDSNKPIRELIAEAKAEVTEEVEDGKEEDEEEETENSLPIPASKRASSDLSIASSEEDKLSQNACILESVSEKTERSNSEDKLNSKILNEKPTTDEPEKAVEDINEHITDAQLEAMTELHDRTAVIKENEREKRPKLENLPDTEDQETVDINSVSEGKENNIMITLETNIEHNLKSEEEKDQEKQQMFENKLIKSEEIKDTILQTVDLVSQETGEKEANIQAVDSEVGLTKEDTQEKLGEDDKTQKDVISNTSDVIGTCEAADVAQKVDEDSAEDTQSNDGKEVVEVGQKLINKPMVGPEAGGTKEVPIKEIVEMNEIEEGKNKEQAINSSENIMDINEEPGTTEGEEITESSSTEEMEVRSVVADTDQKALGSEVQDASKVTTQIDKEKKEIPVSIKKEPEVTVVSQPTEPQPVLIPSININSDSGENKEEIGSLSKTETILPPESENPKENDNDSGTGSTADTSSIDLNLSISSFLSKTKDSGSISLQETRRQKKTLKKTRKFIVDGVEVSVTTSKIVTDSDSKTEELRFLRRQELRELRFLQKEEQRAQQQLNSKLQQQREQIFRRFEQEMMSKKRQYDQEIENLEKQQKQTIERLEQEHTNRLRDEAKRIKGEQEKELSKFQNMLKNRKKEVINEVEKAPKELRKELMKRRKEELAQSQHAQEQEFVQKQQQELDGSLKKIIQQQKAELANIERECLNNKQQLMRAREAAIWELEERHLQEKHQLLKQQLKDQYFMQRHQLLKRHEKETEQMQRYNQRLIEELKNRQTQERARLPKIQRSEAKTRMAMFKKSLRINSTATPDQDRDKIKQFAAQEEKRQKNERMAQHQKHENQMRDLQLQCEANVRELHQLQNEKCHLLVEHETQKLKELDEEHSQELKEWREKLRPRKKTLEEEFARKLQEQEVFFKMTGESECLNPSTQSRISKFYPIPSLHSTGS
T9 sequence (Q00535 whole entry): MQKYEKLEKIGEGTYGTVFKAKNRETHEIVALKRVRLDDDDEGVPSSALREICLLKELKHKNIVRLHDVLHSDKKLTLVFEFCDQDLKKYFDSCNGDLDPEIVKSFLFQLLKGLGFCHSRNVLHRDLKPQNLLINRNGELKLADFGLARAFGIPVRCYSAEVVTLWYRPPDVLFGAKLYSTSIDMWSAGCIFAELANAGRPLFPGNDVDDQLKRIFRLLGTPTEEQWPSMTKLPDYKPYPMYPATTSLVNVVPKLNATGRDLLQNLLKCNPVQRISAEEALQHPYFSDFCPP
T9 sequence (Q15078 whole entry partner): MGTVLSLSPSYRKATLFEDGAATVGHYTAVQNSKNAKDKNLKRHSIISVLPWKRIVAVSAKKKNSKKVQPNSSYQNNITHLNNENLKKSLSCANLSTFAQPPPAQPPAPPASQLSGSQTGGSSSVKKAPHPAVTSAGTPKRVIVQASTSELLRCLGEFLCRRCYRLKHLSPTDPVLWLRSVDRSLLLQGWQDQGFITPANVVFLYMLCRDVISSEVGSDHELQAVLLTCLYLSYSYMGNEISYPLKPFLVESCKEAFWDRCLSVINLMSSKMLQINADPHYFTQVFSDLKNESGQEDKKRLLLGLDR

Cc1c[nH]c2ncnc(-c3ccc(NC(=O)N(CCO)c4ccccc4)cc3)c12 [Compound 18b, 1-(2-Hydroxyethyl)-3-(4-(5-methyl-7H-pyrrolo[2,3-d]pyrimidin-4-yl)phenyl)-1-phenylurea]
P450 % inh. at 10 μM 1A2 (P450 1A2): −16/14/5/13%
P450 % inh. at 10 μM 2D6 (P450 2D6): 5%
AUC (iv) ([1]; iv dosing 1 mg/kg): 8.4 µM·h
Cl (iv) ([1]; iv dosing 1 mg/kg): 5.2 mL/min/kg
T1/2 (iv) ([1]; iv dosing 1 mg/kg): 2.2 h
Yd (iv) ([1]; iv dosing 1 mg/kg): 0.4 L/kg
F (%) (po) ([1]; po dosing 2 mg/kg): 36%
Cmax ([1]; read-out: Cmax (iv), iv dosing 1 mg/kg): 7.7 µM

COC(=O)c1ccc2[nH]c(C3CCN(c4ncnc5[nH]cc(Cl)c45)CC3)nc2c1 [Compound R10015, Methyl 2-(1-(5-chloro-7H-pyrrolo[2,3-d]pyrimidin-4-yl)piperidin-4-yl)-1Hbenzo[d]imidazole-5-carboxylate]
viral DNA synthesis [2]: inhibited
EBOV infection (EBOV (Zaire ebolavirus)): inhibited
RVFV infection [3]: inhibited
activity at 1 µM (PKA): 24%
activity at 1 µM (PKCa): 47.5%
activity at 1 µM (NEK1): 67.2%
activity at 1 µM (AMPK(A1/B1/G1)): 76.6%
activity at 1 µM (SLK/STK2): 108%
activity at 1 µM (PLK2): 103%
activity at 1 µM (BRAF): 91.9%
activity at 1 µM (CDK5/p35): 85.5%
activity at 1 µM (PKN1/PRK1): 58.6%
activity at 1 µM (DAPK1): 87.8%
activity at 1 µM (FAK/PTK2): 81.5%
activity at 1 µM (TBK1): 82%
activity at 1 µM (mTOR/FRAP1): 100%
activity at 1 µM (MLCK/MYLK): 83.3%
activity at 1 µM (TAK1): 82.4%
